Counter-ions that a name gives are not always drawn.
Legend:
[1] = system: phosphorylation of the IRF-3 protein in MDA-MB-468 cells; test: pIRF3 immunocytochemistry cell based assay; conditions: Homo sapiens; MDA-MB-468 cells, Poly(I:C) stimulation; read-out: pIRF3 IC50
Procedure: The purpose of the pIRF3 immunocytochemistry cell based assay was to identify small molecules which modulates TBK/IKKe kinase activity through on target substrate phosphorylation of the IRF-3 protein. On the first day of the experiment, MDA-MB-468 cells were plated in 384 well, black, clear-bottom, Poly D lysine coated plates at a density of 5000 cells/well in 45 ul of complete DMEM and allowed to adhere overnight. On the second day compounds were added to cells at a starting concentration of 10 uM with a serial dilution of 3-fold for a total of 10 points. The cells were incubated for 1 hr at 37° C. Cells were then stimulated with Poly(I:C) at a final concentration of 10 ug/ml, and were incubated for 2 hr at 37° C. Following the incubation, media was removed from the wells and the cells were fixed with 4% PFA for 15 min at RT. Cells were washed at least 3 times with PBS, and then permeabilized with ice-cold methanol for 10 min at RT. The washing step was repeated and the cells were then blocked using 10% goat serum/1% BSA, made up in PBS and allowed to incubate at RT for 1 hr. The cells were washed again and then treated with an anti-pIRF3 antibody at 4° C. overnight (1:250 dilution of Abcam ab76493 in PBS containing 1% BSA). On the third day the primary antibody was washed off and pIRF3 was detected by adding the secondary antibody conjugated to AlexaFluor488 (1:200 dilution of secondary antibody in PBS containing 1% BSA) for 1 hr at RT. Cells were washed and then counterstained with PI/RNase staining buffer for 15 min at RT and read on the Acumen Explorer laser scanning cytometer. The percentage of phosphorylation of the IRF-3 protein was calculated using the following algorithm, a modified version of the mean half width intensity (pIRF3 staining)/(PI staining or # of cells)×100%). IC50 curves were generated using the Genedata software.

TBK1 = biological target: T1, TBK1 (Homo sapiens, UniProt Q9UHD2); test: TBK Biochemical Assay; conditions: read-out: TBK1 IC50
T1 sequence (Q9UHD2 1-729): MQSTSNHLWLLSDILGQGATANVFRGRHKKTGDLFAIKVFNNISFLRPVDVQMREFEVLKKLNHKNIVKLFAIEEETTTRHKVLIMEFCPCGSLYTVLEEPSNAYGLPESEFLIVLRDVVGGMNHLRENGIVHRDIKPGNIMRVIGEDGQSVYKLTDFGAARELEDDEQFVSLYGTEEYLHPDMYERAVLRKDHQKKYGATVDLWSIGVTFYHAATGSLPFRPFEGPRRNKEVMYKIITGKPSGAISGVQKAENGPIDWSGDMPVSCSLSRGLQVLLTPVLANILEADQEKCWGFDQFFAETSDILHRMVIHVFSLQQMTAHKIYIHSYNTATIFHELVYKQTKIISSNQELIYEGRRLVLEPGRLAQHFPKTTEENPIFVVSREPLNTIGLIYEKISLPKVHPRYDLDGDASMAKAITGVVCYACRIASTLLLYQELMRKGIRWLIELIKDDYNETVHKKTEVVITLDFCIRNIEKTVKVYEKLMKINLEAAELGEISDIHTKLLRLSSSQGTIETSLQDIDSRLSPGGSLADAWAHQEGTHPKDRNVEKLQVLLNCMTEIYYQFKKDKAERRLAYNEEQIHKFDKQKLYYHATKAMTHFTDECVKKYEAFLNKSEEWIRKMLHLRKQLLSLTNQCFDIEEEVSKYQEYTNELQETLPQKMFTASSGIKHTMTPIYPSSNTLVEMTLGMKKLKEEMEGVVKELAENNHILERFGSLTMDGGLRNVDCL
Method in brief: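 Caliper LabChip mobility-shift readout of substrate and product after 90 min of TBK1 reaction at 25° C and stop-buffer addition. Compounds tested in 1:4 serial dilution over 10 points from 30 uM final at 1% DMSO; staurosporine 10 uM final defines full inhibition.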

IKKε = biological target: T2, IKKε (Homo sapiens, UniProt Q14164); test: IKKe Biochemical Assay; conditions: read-out: IKKε IC50
T2 sequence (Q14164 1-716): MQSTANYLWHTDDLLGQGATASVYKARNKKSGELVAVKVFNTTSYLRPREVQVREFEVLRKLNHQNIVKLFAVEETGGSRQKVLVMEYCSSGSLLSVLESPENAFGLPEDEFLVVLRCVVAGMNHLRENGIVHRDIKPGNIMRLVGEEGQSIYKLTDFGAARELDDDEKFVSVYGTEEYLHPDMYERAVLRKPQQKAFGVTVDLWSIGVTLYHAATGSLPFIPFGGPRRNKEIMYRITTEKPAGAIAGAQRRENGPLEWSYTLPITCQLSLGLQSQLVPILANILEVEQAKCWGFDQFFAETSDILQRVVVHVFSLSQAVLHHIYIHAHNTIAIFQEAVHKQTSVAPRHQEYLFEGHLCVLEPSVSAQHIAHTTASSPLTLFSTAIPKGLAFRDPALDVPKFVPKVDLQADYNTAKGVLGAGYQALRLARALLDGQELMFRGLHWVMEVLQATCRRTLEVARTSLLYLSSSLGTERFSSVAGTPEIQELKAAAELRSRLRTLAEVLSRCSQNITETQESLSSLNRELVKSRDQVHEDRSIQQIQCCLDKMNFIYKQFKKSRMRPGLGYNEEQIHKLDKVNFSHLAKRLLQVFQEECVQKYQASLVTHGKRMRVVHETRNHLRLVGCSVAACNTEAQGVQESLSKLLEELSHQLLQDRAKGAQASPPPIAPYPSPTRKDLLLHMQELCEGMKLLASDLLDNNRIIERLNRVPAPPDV
Method in brief: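 Activity was measured as mobility-shift separation of phosphorylated from unphosphorylated substrate on a LabChip EZ Reader. Compound was titrated from 30 uM final in 10 points, 1:4 steps, with 1% DMSO, and enzyme plus substrate reacted 90 min at 25° C before stop buffer. Control wells held 10 uM staurosporine.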

Compound	IC50 [1]	IC50 (TBK1)	IC50 (IKKε)
CN(C)C(=O)c1ccc(-c2cc3nccc(-c4ccc(NC5CCOC6(CC6)C5)c(C#N)c4)c3o2)cc1 (stereo not shown) [Compound 286, 4-[7-[3-cyano-4-([4-oxaspiro[2.5]octan-7-yl]amino)phenyl]furo[3,2-b]pyridin-2-yl]-N,N-dimethylbenzamide]	1 to 5 µM	0.1 to 1 µM	0.1 to 1 µM
COc1cc(C(=O)N2CC3COCC3C2)ccc1-c1cc2nccc(-c3ccc(NC4CCOCC4)c(C#N)c3)c2o1 (stereo not shown) [Compound 513]	< 0.1 µM	< 0.1 µM	< 0.1 µM
COc1cc(C(=O)N2CC3CCC2CN3C)ccc1-c1cc2nccc(-c3ccc(NC4CCOCC4)c(C#N)c3)c2o1 (stereo not shown) [Compound 510]	< 0.1 µM	< 0.1 µM	< 0.1 µM
COc1cc(C(=O)N(C)CCN2CCCC2)ccc1-c1cc2nccc(-c3ccc(OC4CCOCC4)c(C#N)c3)c2o1 [Compound 473, 4-{7-[3-Cyano-4-(tetrahydro-pyran-4-yloxy)-phenyl]-furo[3,2-b]pyridin-2-yl}-3-methoxy-N-methyl-N-(2-pyrrolidin-1-yl-ethyl)-benzamide]	< 0.1 µM	< 0.1 µM	< 0.1 µM
CN(CCO)C(=O)c1ccc(-c2cc3ncc(F)c(-c4ccc(NC5CCOCC5)c(C#N)c4)c3o2)c(F)c1 [Compound 303, 4-(7-[3-cyano-4-[(oxan-4-yl)amino]phenyl]-6-fluorofuro[3,2-b]pyridin-2-yl)-3-fluoro-N-(2-hydroxyethyl)-N-methylbenzamide]	0.1 to 1 µM	0.1 to 1 µM	0.1 to 1 µM
COc1cc(C(=O)N2CCC(O)C2)ccc1-c1cc2nccc(-c3ccc(OC4CCOCC4)c(C#N)c3)c2o1 (stereo not shown) [Compound 492, 5-{2-[4-(3-Hydroxy-pyrrolidine-1-carbonyl)-2-methoxy-phenyl]-furo[3,2-b]pyridin-7-yl}-2-(tetrahydro-pyran-4-yloxy)-benzonitrile]	0.1 to 1 µM	< 0.1 µM	< 0.1 µM
COc1cc(C(=O)N2CC[C@H](N(C)C)C2)cnc1-c1cc2nccc(-c3ccc(N4CC[C@H](F)C4)c(C#N)c3)c2o1 [Compound 447, 5-{2-[5-((S)-3-Dimethylamino-pyrrolidine-1-carbonyl)-3-methoxy-pyridin-2-yl]-furo[3,2-b]pyridin-7-yl}-2-((S)-3-fluoro-pyrrolidin-1-yl)-benzonitrile]	< 0.1 µM	< 0.1 µM	< 0.1 µM
CC(=O)Nc1ccc(-c2cc3nccc(-c4ccc(OC5CCOCC5)c(C#N)c4)c3o2)cc1 [Compound 154]	1 to 5 µM	< 0.1 µM	< 0.1 µM
COc1cc(C(=O)N2CCC(CO)C2)ccc1-c1cc2nccc(-c3ccc(N4CC[C@H](F)C4)c(C#N)c3)c2o1 (stereo partly drawn) [Compound 76, 2-((S)-3-Fluoro-pyrrolidin-1-yl)-5-{2-[4-(3-hydroxymethyl-pyrrolidine-1-carbonyl)-2-methoxy-phenyl]-furo[3,2-b]pyridin-7-yl}-benzonitrile]	0.1 to 1 µM	< 0.1 µM	< 0.1 µM
COc1cc(C(=O)NNC(=O)OC(C)(C)C)ccc1-c1cc2nccc(-c3ccc(OC4CCOCC4)c(C#N)c3)c2o1 [Compound 67, N′-(4-{7-[3-Cyano-4-(tetrahydro-pyran-4-yloxy)-phenyl]-furo[3,2-b]pyridin-2-yl}-3-methoxy-benzoyl)-hydrazinecarboxylic acid tert-butyl ester]	0.1 to 1 µM	< 0.1 µM	< 0.1 µM
COc1cc(C(=O)N(C)C)cnc1-c1cc2nccc(-c3cnc(N4CCC(F)C4)c(C#N)c3)c2o1 (stereo not shown) [Compound 489]	0.1 to 1 µM	< 0.1 µM	< 0.1 µM
COc1cc(C(=O)N(C)C)ccc1-c1cc2nccc(-c3ccc(OC4CCOC[C@@H]4F)c(C#N)c3)c2o1 (mixture of isomers) [Compound 42, 4-{7-[3-Cyano-4-((S)-3-fluoro-tetrahydro-pyran-4-yloxy)-phenyl]-furo[3,2-b]pyridin-2-yl}-3-methoxy-N,N-dimethyl-benzamide]	< 0.1 µM	< 0.1 µM	< 0.1 µM
COc1cc(C(=O)NC2CN3CCC2CC3)ccc1-c1cc2nccc(-c3ccc(OC4CCOCC4)c(C#N)c3)c2o1 (stereo not shown) [Compound 79, N-(1-Aza-bicyclo[2.2.2]oct-3-yl)-4-{7-[3-cyano-4-(tetrahydro-pyran-4-yloxy)-phenyl]-furo[3,2-b]pyridin-2-yl}-3-methoxy-benzamide]	0.1 to 1 µM	< 0.1 µM	< 0.1 µM
COc1cc(C(=O)N(C)C)cnc1-c1cc2ncc(OC)c(-c3ccc(OC4CCOCC4)c(C#N)c3)c2o1 [Compound 339, 6-[7-[3-cyano-4-(oxan-4-yloxy)phenyl]-6-methoxyfuro[3,2-b]pyridin-2-yl]-5-methoxy-N,N-dimethylpyridine-3-carboxamide]	< 0.1 µM	0.1 to 1 µM	–
COc1cc(C(=O)N(C)C)ccc1-c1cc2nccc(-c3ccc(C(C)(C)N4CCOCC4)c(C#N)c3)c2o1 [Compound 291, 4-(7-[3-cyano-4-[2-(morpholin-4-yl)propan-2-yl]phenyl]furo[3,2-b]pyridin-2-yl)-3-methoxy-N,N-dimethylbenzamide hydrochloride]	> 5 µM	–	–
COc1cc(C(=O)N(C)C)cnc1-c1cc2ncc(OC)c(-c3ccc(NC4CCOCC4)c(C#N)n3)c2o1 [Compound 358, 6-(7-[6-cyano-5-[(oxan-4-yl)amino]pyridin-2-yl]-6-methoxyfuro[3,2-b]pyridin-2-yl)-5-methoxy-N,N-dimethylpyridine-3-carboxamide]	–	1 to 5 µM	1 to 5 µM
COc1cc(C(=O)N(C)CCO)ccc1-c1cc2ncc(C3CC3)c(-c3ccc(OC4CCOCC4)c(C#N)c3)c2o1 [Compound 306, 4-(7-(3-cyano-4-(tetrahydro-2H-pyran-4-yloxy)phenyl)-6-cyclopropylfuro[3,2-b]pyridin-2-yl)-N-(2-hydroxyethyl)-3-methoxy-N-methylbenzamide]	–	> 5 µM	> 5 µM
